From patent US20230085307A1, “PYRIDAZINONE COMPOUND AND HERBICIDE” (NISSAN CHEMICAL CORPORATION, priority 2019, published 2023)

How the values were obtained:
Chinese sprangletop = assay: Test Example 3: herbicidal effect by foliage application, Wagner pot (Table 18, symbol D); format: in vivo, chinese sprangletop (Leptochloa chinensis); conditions: 320 g/ha
In short: (§1)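 Plants were sown in alluvial soil held under 0.1–0.5 cm standing water and grown 14 days in a greenhouse at 25–30 °C. An emulsifiable formulation, water-diluted to the set dose, was then sprayed onto the foliage, and effects were scored three weeks later using previously defined criteria.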

wild oat [1] = assay: Test Example 4: herbicidal effect by soil treatment (Table 19, symbol I); format: in vivo, wild oat (Avena fatua); conditions: amount of applied herbicide 320 g/ha
In short: (§2)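 Emulsion of test compound, water-diluted to predetermined amount, sprayed on soil after sowing (seed depth ~1.5 cm, sterilized diluvial soil). Greenhouse, 25–30° C. Effect graded at three weeks post-spray.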

persian speedwell [2] = assay: Test Example 4: herbicidal effect by soil treatment (Table 19, symbol R); format: in vivo, Persian speedwell (Veronica persica); conditions: amount of applied herbicide 320 g/ha
In short: as §2

green foxtail [3] = assay: Test Example 5: herbicidal effect by foliage application, plastic box (Table 20, symbol G); format: in vivo, green foxtail (Setaria viridis); conditions: foliage application, 320 g/ha, three weeks after application
In short: (§3)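 Post-emergence foliar test in sterilized diluvial soil. Compound applied as water-diluted emulsion at a predetermined rate to 14-day-old plants; evaluation at three weeks.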

Italian ryegrass [4] = assay: Test Example 4: herbicidal effect by soil treatment (Table 19, symbol K); format: in vivo, Italian ryegrass (Lolium multiflorum); conditions: amount of applied herbicide 320 g/ha
In short: as §2

windgrass [5] = assay: Test Example 4: herbicidal effect by soil treatment (Table 19, symbol L); format: in vivo, windgrass (Apera spica-venti); conditions: amount of applied herbicide 320 g/ha
In short: as §2

redroot pigweed [6] = assay: Test Example 4: herbicidal effect by soil treatment (Table 19, symbol N); format: in vivo, redroot pigweed (Amaranthus retroflexus); conditions: amount of applied herbicide 320 g/ha
In short: as §2

barnyard grass [7] = assay: Test Example 5: herbicidal effect by foliage application, plastic box (Table 20, symbol H); format: in vivo, barnyard grass (Echinochloa crus-galli); conditions: foliage application, 320 g/ha, three weeks after application
In short: as §3

wild oat [8] = assay: Test Example 5: herbicidal effect by foliage application, plastic box (Table 20, symbol I); format: in vivo, wild oat (Avena fatua); conditions: foliage application, 320 g/ha, three weeks after application
In short: as §3

barnyard grass [9] = assay: Test Example 4: herbicidal effect by soil treatment (Table 19, symbol H); format: in vivo, barnyard grass (Echinochloa crus-galli); conditions: amount of applied herbicide 320 g/ha
In short: as §2

green foxtail [10] = assay: Test Example 4: herbicidal effect by soil treatment (Table 19, symbol G); format: in vivo, green foxtail (Setaria viridis); conditions: amount of applied herbicide 320 g/ha
In short: as §2

persian speedwell [11] = assay: Test Example 5: herbicidal effect by foliage application, plastic box (Table 20, symbol R); format: in vivo, Persian speedwell (Veronica persica); conditions: foliage application, 320 g/ha, three weeks after application
In short: as §3

Italian ryegrass [12] = assay: Test Example 5: herbicidal effect by foliage application, plastic box (Table 20, symbol K); format: in vivo, Italian ryegrass (Lolium multiflorum); conditions: foliage application, 320 g/ha, three weeks after application
In short: as §3

southern crabgrass [13] = assay: Test Example 5: herbicidal effect by foliage application, plastic box (Table 20, symbol F); format: in vivo, southern crabgrass (Digitaria ciliaris); conditions: foliage application, 320 g/ha, three weeks after application
In short: as §3

barnyard grass [14] = assay: Test Example 3: herbicidal effect by foliage application, Wagner pot (Table 18, symbol H); format: in vivo, barnyard grass (Echinochloa crus-galli); conditions: 320 g/ha
In short: as §1

rice flat sedge = assay: Test Example 3: herbicidal effect by foliage application, Wagner pot (Table 18, symbol E); format: in vivo, rice flat sedge (Cyperus iria); conditions: 320 g/ha
In short: as §1

southern crabgrass [15] = assay: Test Example 4: herbicidal effect by soil treatment (Table 19, symbol F); format: in vivo, southern crabgrass (Digitaria ciliaris); conditions: amount of applied herbicide 320 g/ha
In short: as §2

windgrass [16] = assay: Test Example 5: herbicidal effect by foliage application, plastic box (Table 20, symbol L); format: in vivo, windgrass (Apera spica-venti); conditions: foliage application, 320 g/ha, three weeks after application
In short: as §3

false cleavers [17] = assay: Test Example 4: herbicidal effect by soil treatment (Table 19, symbol Q); format: in vivo, false cleavers (Galium spurium); conditions: amount of applied herbicide 320 g/ha
In short: as §2

chickweed [18] = assay: Test Example 5: herbicidal effect by foliage application, plastic box (Table 20, symbol P); format: in vivo, common chickweed (Stellaria media); conditions: foliage application, 320 g/ha, three weeks after application
In short: as §3

velvetleaf [19] = assay: Test Example 4: herbicidal effect by soil treatment (Table 19, symbol M); format: in vivo, velvetleaf (Abutilon theophrasti); conditions: amount of applied herbicide 320 g/ha
In short: as §2

blackgrass [20] = assay: Test Example 4: herbicidal effect by soil treatment (Table 19, symbol J); format: in vivo, blackgrass (Alopecurus myosuroides); conditions: amount of applied herbicide 320 g/ha
In short: as §2

velvetleaf [21] = assay: Test Example 5: herbicidal effect by foliage application, plastic box (Table 20, symbol M); format: in vivo, velvetleaf (Abutilon theophrasti); conditions: foliage application, 320 g/ha, three weeks after application
In short: as §3

lambsquarters [22] = assay: Test Example 4: herbicidal effect by soil treatment (Table 19, symbol O); format: in vivo, lambsquarters (Chenopodium album); conditions: amount of applied herbicide 320 g/ha
In short: as §2

false cleavers [23] = assay: Test Example 5: herbicidal effect by foliage application, plastic box (Table 20, symbol Q); format: in vivo, false cleavers (Galium spurium); conditions: foliage application, 320 g/ha, three weeks after application
In short: as §3

blackgrass [24] = assay: Test Example 5: herbicidal effect by foliage application, plastic box (Table 20, symbol J); format: in vivo, blackgrass (Alopecurus myosuroides); conditions: foliage application, 320 g/ha, three weeks after application
In short: as §3

chickweed [25] = assay: Test Example 4: herbicidal effect by soil treatment (Table 19, symbol P); format: in vivo, common chickweed (Stellaria media); conditions: amount of applied herbicide 320 g/ha
In short: as §2

lambsquarters [26] = assay: Test Example 5: herbicidal effect by foliage application, plastic box (Table 20, symbol O); format: in vivo, lambsquarters (Chenopodium album); conditions: foliage application, 320 g/ha, three weeks after application
In short: as §3

redroot pigweed [27] = assay: Test Example 5: herbicidal effect by foliage application, plastic box (Table 20, symbol N); format: in vivo, redroot pigweed (Amaranthus retroflexus); conditions: foliage application, 320 g/ha, three weeks after application
In short: as §3

| SMILES | herbicidal effect on D (Chinese sprangletop), rating 0-5 (Chinese sprangletop) | herbicidal effect rating, I: wild oat (wild oat [1]) | herbicidal effect rating, R: persian speedwell (persian speedwell [2]) | herbicidal effect grade, G: green foxtail (green foxtail [3]) | herbicidal effect rating, K: Italian ryegrass (Italian ryegrass [4]) | herbicidal effect rating, L: windgrass (windgrass [5]) | herbicidal effect rating, N: redroot pigweed (redroot pigweed [6]) | herbicidal effect grade, H: barnyard grass (barnyard grass [7]) | herbicidal effect grade, I: wild oat (wild oat [8]) | herbicidal effect rating, H: barnyard grass (barnyard grass [9]) | herbicidal effect rating, G: green foxtail (green foxtail [10]) | herbicidal effect grade, R: persian speedwell (persian speedwell [11]) | herbicidal effect grade, K: Italian ryegrass (Italian ryegrass [12]) | herbicidal effect grade, F: southern crabgrass (southern crabgrass [13]) | herbicidal effect on H (barnyard grass), rating 0-5 (barnyard grass [14]) | herbicidal effect on E (rice flat sedge), rating 0-5 (rice flat sedge) | herbicidal effect rating, F: southern crabgrass (southern crabgrass [15]) | herbicidal effect grade, L: windgrass (windgrass [16]) | herbicidal effect rating, Q: false cleavers (false cleavers [17]) | herbicidal effect grade, P: chickweed (chickweed [18]) | other results |
| --- | --- | --- | --- | --- | --- | --- | --- | --- | --- | --- | --- | --- | --- | --- | --- | --- | --- | --- | --- | --- | --- |
| COc1cc(Cl)ccc1-c1sc2ccccc2c1-c1c(O)c(C)nn(C)c1=O [1-060] | 3 (Herbicidal rate of 40% or more and less than 70%) | 0 (Herbicidal rate of 5% or less (almost no effect)) | 5 (Herbicidal rate of 90% or more (almost completely withered)) | 3 (Herbicidal rate of 40% or more and less than 70%) | 0 (Herbicidal rate of 5% or less (almost no effect)) | 1 (Herbicidal rate of 5% or more and less than 20%) | 0 (Herbicidal rate of 5% or less (almost no effect)) | 3 (Herbicidal rate of 40% or more and less than 70%) | 3 (Herbicidal rate of 40% or more and less than 70%) | 0 (Herbicidal rate of 5% or less (almost no effect)) | 0 (Herbicidal rate of 5% or less (almost no effect)) | 5 (Herbicidal rate of 90% or more (almost completely withered)) | 3 (Herbicidal rate of 40% or more and less than 70%) | 3 (Herbicidal rate of 40% or more and less than 70%) | 4 (Herbicidal rate of 70% or more and less than 90%) | 4 (Herbicidal rate of 70% or more and less than 90%) | 0 (Herbicidal rate of 5% or less (almost no effect)) | 5 (Herbicidal rate of 90% or more (almost completely withered)) | 3 (Herbicidal rate of 40% or more and less than 70%) | 5 (Herbicidal rate of 90% or more (almost completely withered)) | herbicidal effect rating, M: velvetleaf (velvetleaf [19]): 0 (Herbicidal rate of 5% or less (almost no effect)); herbicidal effect rating, J: blackgrass (blackgrass [20]): 0 (Herbicidal rate of 5% or less (almost no effect)); herbicidal effect grade, M: velvetleaf (velvetleaf [21]): 3 (Herbicidal rate of 40% or more and less than 70%); herbicidal effect rating, O: lambsquarters (lambsquarters [22]): 0 (Herbicidal rate of 5% or less (almost no effect)); herbicidal effect grade, Q: false cleavers (false cleavers [23]): 5 (Herbicidal rate of 90% or more (almost completely withered)); herbicidal effect grade, J: blackgrass (blackgrass [24]): 3 (Herbicidal rate of 40% or more and less than 70%); herbicidal effect rating, P: chickweed (chickweed [25]): 4 (Herbicidal rate of 70% or more and less than 90%); herbicidal effect grade, O: lambsquarters (lambsquarters [26]): 5 (Herbicidal rate of 90% or more (almost completely withered)); herbicidal effect grade, N: redroot pigweed (redroot pigweed [27]): 3 (Herbicidal rate of 40% or more and less than 70%) |
| CCCC(=O)Oc1c(C)nn(C)c(=O)c1-c1c(-c2cc(C)c(OC)c(C)c2)sc2ccccc12 [1-075] | 0 (Herbicidal rate of 5% or less (almost no effect)) | 0 (Herbicidal rate of 5% or less (almost no effect)) | 3 (Herbicidal rate of 40% or more and less than 70%) | 0 (Herbicidal rate of 5% or less (almost no effect)) | 0 (Herbicidal rate of 5% or less (almost no effect)) | 0 (Herbicidal rate of 5% or less (almost no effect)) | 0 (Herbicidal rate of 5% or less (almost no effect)) | 0 (Herbicidal rate of 5% or less (almost no effect)) | 0 (Herbicidal rate of 5% or less (almost no effect)) | 1 (Herbicidal rate of 5% or more and less than 20%) | 0 (Herbicidal rate of 5% or less (almost no effect)) | 5 (Herbicidal rate of 90% or more (almost completely withered)) | 3 (Herbicidal rate of 40% or more and less than 70%) | 0 (Herbicidal rate of 5% or less (almost no effect)) | 3 (Herbicidal rate of 40% or more and less than 70%) | 5 (Herbicidal rate of 90% or more (almost completely withered)) | 0 (Herbicidal rate of 5% or less (almost no effect)) | 0 (Herbicidal rate of 5% or less (almost no effect)) | 0 (Herbicidal rate of 5% or less (almost no effect)) | 0 (Herbicidal rate of 5% or less (almost no effect)) | herbicidal effect rating, M: velvetleaf (velvetleaf [19]): 0 (Herbicidal rate of 5% or less (almost no effect)); herbicidal effect rating, J: blackgrass (blackgrass [20]): 0 (Herbicidal rate of 5% or less (almost no effect)); herbicidal effect grade, M: velvetleaf (velvetleaf [21]): 0 (Herbicidal rate of 5% or less (almost no effect)); herbicidal effect rating, O: lambsquarters (lambsquarters [22]): 0 (Herbicidal rate of 5% or less (almost no effect)); herbicidal effect grade, Q: false cleavers (false cleavers [23]): 0 (Herbicidal rate of 5% or less (almost no effect)); herbicidal effect grade, J: blackgrass (blackgrass [24]): 0 (Herbicidal rate of 5% or less (almost no effect)); herbicidal effect rating, P: chickweed (chickweed [25]): 0 (Herbicidal rate of 5% or less (almost no effect)); herbicidal effect grade, O: lambsquarters (lambsquarters [26]): 0 (Herbicidal rate of 5% or less (almost no effect)); herbicidal effect grade, N: redroot pigweed (redroot pigweed [27]): 3 (Herbicidal rate of 40% or more and less than 70%) |
